# Measurements from the NIST ThermoML archive (doi:10.1021/acs.jced.5b00662).
# ± gives the expanded uncertainty stated by the source.
# Test: xn = mol fraction of the nth substance listed
# Conditions: 100 kPa, Liquid; for speed of sound: Sing-around technique in a fixed-path interferometer; for mass density: Vibrating tube method
structure (smiles),measurement,setting,value
CCOCCOCCOCC [diethylene glycol diethyl ether] + O,speed of sound,"283.15 K, x1 = 0.97",1305.3 ± 2.3 m/s
same,speed of sound,"283.15 K, x1 = 0.9742",1304.9 ± 2.3 m/s
same,speed of sound,"283.15 K, x1 = 0.9778",1303.9 ± 2.3 m/s
same,speed of sound,"283.15 K, x1 = 0.9836",1303.6 ± 2.3 m/s
same,speed of sound,"283.15 K, x1 = 0.9875",1304.4 ± 2.3 m/s
same,speed of sound,"283.15 K, x1 = 0.9911",1304.1 ± 2.3 m/s
same,mass density,"283.15 K, x1 = 0.97",918.572 ± 2.1 kg/m3
same,mass density,"283.15 K, x1 = 0.9742",918.371 ± 2.1 kg/m3
same,mass density,"283.15 K, x1 = 0.9778",918.271 ± 2.1 kg/m3
same,mass density,"283.15 K, x1 = 0.9836",917.783 ± 2.1 kg/m3
same,mass density,"283.15 K, x1 = 0.9875",917.643 ± 2.1 kg/m3
same,mass density,"283.15 K, x1 = 0.9911",917.567 ± 2.1 kg/m3
same,speed of sound,"288.15 K, x1 = 0.97",1284.9 ± 2.3 m/s
same,speed of sound,"288.15 K, x1 = 0.9742",1284.6 ± 2.3 m/s
same,speed of sound,"288.15 K, x1 = 0.9778",1283.6 ± 2.3 m/s
same,speed of sound,"288.15 K, x1 = 0.9836",1283.3 ± 2.3 m/s
same,speed of sound,"288.15 K, x1 = 0.9875",1284 ± 2.3 m/s
same,speed of sound,"288.15 K, x1 = 0.9911",1284 ± 2.3 m/s
same,mass density,"288.15 K, x1 = 0.97",913.742 ± 2.1 kg/m3
same,mass density,"288.15 K, x1 = 0.9742",913.543 ± 2.1 kg/m3
same,mass density,"288.15 K, x1 = 0.9778",913.443 ± 2.1 kg/m3
same,mass density,"288.15 K, x1 = 0.9836",912.955 ± 2.1 kg/m3
same,mass density,"288.15 K, x1 = 0.9875",912.82 ± 2.1 kg/m3
same,mass density,"288.15 K, x1 = 0.9911",912.74 ± 2.1 kg/m3
same,speed of sound,"293.15 K, x1 = 0.97",1264.8 ± 2.3 m/s
same,speed of sound,"293.15 K, x1 = 0.9742",1264.4 ± 2.3 m/s
same,speed of sound,"293.15 K, x1 = 0.9778",1263.6 ± 2.3 m/s
same,speed of sound,"293.15 K, x1 = 0.9836",1263.2 ± 2.3 m/s
same,speed of sound,"293.15 K, x1 = 0.9875",1263.9 ± 2.3 m/s
same,speed of sound,"293.15 K, x1 = 0.9911",1263.8 ± 2.3 m/s
same,mass density,"293.15 K, x1 = 0.97",908.91 ± 2.1 kg/m3
same,mass density,"293.15 K, x1 = 0.9742",908.705 ± 2.1 kg/m3
same,mass density,"293.15 K, x1 = 0.9778",908.61 ± 2.1 kg/m3
same,mass density,"293.15 K, x1 = 0.9836",908.126 ± 2.1 kg/m3
same,mass density,"293.15 K, x1 = 0.9875",907.993 ± 2.1 kg/m3
same,mass density,"293.15 K, x1 = 0.9911",907.914 ± 2.1 kg/m3
same,speed of sound,"298.15 K, x1 = 0.97",1244.9 ± 2.3 m/s
same,speed of sound,"298.15 K, x1 = 0.9742",1244.6 ± 2.3 m/s
same,speed of sound,"298.15 K, x1 = 0.9778",1243.7 ± 2.3 m/s
same,speed of sound,"298.15 K, x1 = 0.9836",1243.4 ± 2.3 m/s
same,speed of sound,"298.15 K, x1 = 0.9875",1244.1 ± 2.3 m/s
same,speed of sound,"298.15 K, x1 = 0.9911",1244 ± 2.3 m/s
same,mass density,"298.15 K, x1 = 0.97",904.074 ± 2.1 kg/m3
same,mass density,"298.15 K, x1 = 0.9742",903.873 ± 2.1 kg/m3
same,mass density,"298.15 K, x1 = 0.9778",903.775 ± 2.1 kg/m3
same,mass density,"298.15 K, x1 = 0.9836",903.3 ± 2.1 kg/m3
same,mass density,"298.15 K, x1 = 0.9875",903.166 ± 2.1 kg/m3
same,mass density,"298.15 K, x1 = 0.9911",903.09 ± 2.1 kg/m3
same,speed of sound,"303.15 K, x1 = 0.97",1225.2 ± 2.3 m/s
same,speed of sound,"303.15 K, x1 = 0.9742",1224.9 ± 2.3 m/s
same,speed of sound,"303.15 K, x1 = 0.9778",1224 ± 2.3 m/s
same,speed of sound,"303.15 K, x1 = 0.9836",1223.6 ± 2.3 m/s
same,speed of sound,"303.15 K, x1 = 0.9875",1224.4 ± 2.3 m/s
same,speed of sound,"303.15 K, x1 = 0.9911",1224.2 ± 2.3 m/s
same,mass density,"303.15 K, x1 = 0.97",899.235 ± 2.1 kg/m3
same,mass density,"303.15 K, x1 = 0.9742",899.035 ± 2.1 kg/m3
same,mass density,"303.15 K, x1 = 0.9778",898.937 ± 2.1 kg/m3
same,mass density,"303.15 K, x1 = 0.9836",898.467 ± 2.1 kg/m3
same,mass density,"303.15 K, x1 = 0.9875",898.334 ± 2.1 kg/m3
same,mass density,"303.15 K, x1 = 0.9911",898.256 ± 2.1 kg/m3
same,speed of sound,"308.15 K, x1 = 0.97",1205.6 ± 2.3 m/s
same,speed of sound,"308.15 K, x1 = 0.9742",1205.3 ± 2.3 m/s
same,speed of sound,"308.15 K, x1 = 0.9778",1204.6 ± 2.3 m/s
same,speed of sound,"308.15 K, x1 = 0.9836",1204.1 ± 2.3 m/s
same,speed of sound,"308.15 K, x1 = 0.9875",1204.7 ± 2.3 m/s
same,speed of sound,"308.15 K, x1 = 0.9911",1204.6 ± 2.3 m/s
same,mass density,"308.15 K, x1 = 0.97",894.389 ± 2.1 kg/m3
same,mass density,"308.15 K, x1 = 0.9742",894.189 ± 2.1 kg/m3
same,mass density,"308.15 K, x1 = 0.9778",894.092 ± 2.1 kg/m3
same,mass density,"308.15 K, x1 = 0.9836",893.628 ± 2.1 kg/m3
same,mass density,"308.15 K, x1 = 0.9875",893.496 ± 2.1 kg/m3
same,mass density,"308.15 K, x1 = 0.9911",893.419 ± 2.1 kg/m3
same,speed of sound,"313.15 K, x1 = 0.97",1186.4 ± 2.3 m/s
same,speed of sound,"313.15 K, x1 = 0.9742",1186 ± 2.3 m/s
same,speed of sound,"313.15 K, x1 = 0.9778",1185.3 ± 2.3 m/s
same,speed of sound,"313.15 K, x1 = 0.9836",1184.7 ± 2.3 m/s
same,speed of sound,"313.15 K, x1 = 0.9875",1184.7 ± 2.3 m/s
same,speed of sound,"313.15 K, x1 = 0.9911",1185.3 ± 2.3 m/s
same,mass density,"313.15 K, x1 = 0.97",889.537 ± 2.1 kg/m3
same,mass density,"313.15 K, x1 = 0.9742",889.339 ± 2.1 kg/m3
same,mass density,"313.15 K, x1 = 0.9778",889.241 ± 2.1 kg/m3
same,mass density,"313.15 K, x1 = 0.9836",888.783 ± 2.1 kg/m3
same,mass density,"313.15 K, x1 = 0.9875",888.652 ± 2.1 kg/m3
same,mass density,"313.15 K, x1 = 0.9911",888.577 ± 2.1 kg/m3
same,speed of sound,"323.15 K, x1 = 0.97",1148.2 ± 2.3 m/s
same,speed of sound,"323.15 K, x1 = 0.9742",1147.7 ± 2.3 m/s
same,speed of sound,"323.15 K, x1 = 0.9778",1147.3 ± 2.3 m/s
same,speed of sound,"323.15 K, x1 = 0.9836",1146.7 ± 2.3 m/s
same,speed of sound,"323.15 K, x1 = 0.9875",1146.3 ± 2.3 m/s
same,speed of sound,"323.15 K, x1 = 0.9911",1146.2 ± 2.3 m/s
same,mass density,"323.15 K, x1 = 0.97",879.812 ± 2.1 kg/m3
same,mass density,"323.15 K, x1 = 0.9742",879.619 ± 2.1 kg/m3
same,mass density,"323.15 K, x1 = 0.9778",879.518 ± 2.1 kg/m3
same,mass density,"323.15 K, x1 = 0.9836",879.074 ± 2.1 kg/m3
same,mass density,"323.15 K, x1 = 0.9875",878.945 ± 2.1 kg/m3
same,mass density,"323.15 K, x1 = 0.9911",878.873 ± 2.1 kg/m3
same,speed of sound,"333.15 K, x1 = 0.97",1111 ± 2.3 m/s
same,speed of sound,"333.15 K, x1 = 0.9742",1110.4 ± 2.3 m/s
same,speed of sound,"333.15 K, x1 = 0.9778",1110 ± 2.3 m/s
same,speed of sound,"333.15 K, x1 = 0.9836",1109.5 ± 2.3 m/s
same,speed of sound,"333.15 K, x1 = 0.9875",1109.1 ± 2.3 m/s
same,speed of sound,"333.15 K, x1 = 0.9911",1108.9 ± 2.3 m/s
same,mass density,"333.15 K, x1 = 0.97",870.056 ± 2.1 kg/m3
same,mass density,"333.15 K, x1 = 0.9742",869.867 ± 2.1 kg/m3
same,mass density,"333.15 K, x1 = 0.9778",869.76 ± 2.1 kg/m3
same,mass density,"333.15 K, x1 = 0.9836",869.332 ± 2.1 kg/m3
same,mass density,"333.15 K, x1 = 0.9875",869.203 ± 2.1 kg/m3
same,mass density,"333.15 K, x1 = 0.9911",869.134 ± 2.1 kg/m3
same,speed of sound,"343.15 K, x1 = 0.97",1074.5 ± 2.3 m/s
same,speed of sound,"343.15 K, x1 = 0.9742",1074 ± 2.3 m/s
same,speed of sound,"343.15 K, x1 = 0.9778",1073.7 ± 2.3 m/s
same,speed of sound,"343.15 K, x1 = 0.9836",1073.1 ± 2.3 m/s
same,speed of sound,"343.15 K, x1 = 0.9875",1072.6 ± 2.3 m/s
same,speed of sound,"343.15 K, x1 = 0.9911",1072.7 ± 2.3 m/s
same,mass density,"343.15 K, x1 = 0.97",860.264 ± 2.1 kg/m3
same,mass density,"343.15 K, x1 = 0.9742",860.076 ± 2.1 kg/m3
same,mass density,"343.15 K, x1 = 0.9778",859.966 ± 2.1 kg/m3
same,mass density,"343.15 K, x1 = 0.9836",859.55 ± 2.1 kg/m3
same,mass density,"343.15 K, x1 = 0.9875",859.411 ± 2.1 kg/m3
same,mass density,"343.15 K, x1 = 0.9911",859.346 ± 2.1 kg/m3
